This note sets out measurements from US10385069B2, “Imidazo[2,1-B]thiazole and 5,6-dihydroimidazo[2,1-B]thiazole derivatives useful as S100-inhibitors” (Active Biotech AB, priority 2015, dated 2019).

The assay deals with T1, interaction between biotinylated human S100A9 and human RAGE-Fc (Homo sapiens, UniProt P06702).
T1 construct: made in house; host or cells: E. coli
T1 sequence (P06702 1-114): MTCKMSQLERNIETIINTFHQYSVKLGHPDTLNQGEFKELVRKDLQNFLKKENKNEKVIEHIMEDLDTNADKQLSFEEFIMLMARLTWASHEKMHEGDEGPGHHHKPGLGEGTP
The assay can be described thus: AlphaScreen inhibition assay, biot-hS100A9:hRAGE-Fc. The assay is classed as binding. The settings on record: biot-hS100A9 pre-incubated with compound 1 h, assay buffer with CaCl2 and ZnCl2. An excerpt: Inhibition Assay, Biot-hS100A9:hRAGE-Fc
The AlphaScreen (Amplified Luminescent Proximity Homogeneous Assay) contains two types of beads, Alpha Donor beads and Acceptor beads (PerkinElmer). Upon laser excitation at 680 nm a photosensitizer in the Donor bead converts ambient oxygen to a more excited singlet state. The singlet oxygen molecule diffuses (maximum 200 nm) to react with a thioxene derivative in the Acceptor bead and generates a chemiluminescence reaction. Fluorophores in the Acceptor bead subsequently emit light at 520-620 nm which can be detected in the EnVision® Multilabel plate Reader (PerkinElmer). The beads are light sensitive and all work with the beads is performed under subdued light conditions or using green filters on light sources (Roscolux Chroma Green #389, Rosco).
In the AlphaScreen Inhibition Assay described here, protein A (Staphylococcus aureus) conjugated Acceptor beads are used together with streptavidin coated Donor beads (Perkin Elmer 6760617M). The Acceptor beads are pre-incubated with Fc-tagged recombinant human RAGE (rhRAGE-Fc) allowing binding of the rhRAGE-Fc to protein A on the beads. Biotinylated human S100A9 (biot-hS100A9) is pre-incubated with the low molecular test compounds. The pre-mixes are then added to the wells of a micro-plate and incubated allowing interaction between biot-hS100A9 and rhRAGE-Fc. Subsequent addition of streptavidin coated Donor beads causes binding of the streptavidin to the biotinylated hS100A9. After an additional incubation the signal is measured.
Without inhibitory compounds, the interaction of biot-hS100A9 to rhRAGE-Fc will bring the Acceptor and Donor beads in close proximity thus generating a high signal. With an inhibitor present the complex will not form resulting in a decreased signal. The assay is illustrated in FIG. 1.
Chemicals and Reagents. • AlphaScreen® General IgG (Protein A) Detection Kit, (PerkinElmer 6760617M) • HBS-P buffer (GE Healthcare, BR-1003-68) • HBS-N buffer (GE Healthcare, BR-1003-69) • CaCl2 in HBS-P • ZnCl2 in Milli-Q water • DMSO • Biotinylated hS100A9, (biotinylated via cystein by EZ-link Iodoacetyl-PEG2-Biotin reagent (Pierce no. 21334), in HBS-N • rhRAGE-Fc (R&D Systems, 1145-RG-50), in HBS-P
The AlphaScreen assay method is used for screening of the inhibitory effect of different compound samples at fixed concentrations or for IC50 determination by varying the compound concentrations. Samples of test compounds and references are prepared from solutions in DMSO. Relevant reference inhibitors and DMSO are used as controls for defined inhibition and non-inhibition, respectively in the assay. The percent inhibition in assay for test compounds and references are calculated by comparing their obtained assay signals with the signal values for the control with only DMSO (no compound).
Assay concentration of biotinylated hS100A9 and rhRAGE-Fc are batch dependent, and are determined and defined by separate cross-titration experiments using this AlphaScreen inhibition method to verify the optimal setup regarding signal strength and achievement of a defined inhibition with relevant reference compounds. The Final assay concentrations of Acceptor and Donor beads are 20 μg/mL.
Assay buffer is prepared by adding CaCl2 and ZnCl2 to HBS-P and is used freshly prepared in the experiment.
Biotin-hS100A9 solution for the experiment is prepared by dilution of appropriate amount of stock solution biot-hS100A9 in assay buffer (with CaCl2 and ZnCl2) and incubation in room temperature for 30 minutes.
rhRAGE-Fc solution for the experiment is prepared by dilution appropriate amount of rhRAGE-Fc stock in assay buffer.
Protein A Acceptor beads are diluted in assay buffer and are added to an equal volume of the prepared diluted rhRAGE-Fc solution. The beads are light sensitive. The vial is covered with aluminum foil and incubated at room temperature in the dark until biot-hS100A9+compound incubation is finished (see below). […]
On the technique in general: Bead proximity is the source of the signal in Alpha formats.
By IC50 is commonly meant the concentration at which inhibition is half-maximal. Turning to `CC(C)CC1(C(=O)O)CN2C(=N1)Sc1c2ccc(F)c1Cl` (centres unmarked) [Example 249, 9-Chloro-10-fluoro-4-(2-methylpropyl)-7-thia-2,5-diazatricyclo[6.4.0.0^2,6]dodeca-1(8),5,9,11-tetraene-4-carboxylic acid], the 50% inhibitory concentration (IC50) stood at 690 nM.
With `CC1(C)Cc2c(sc3nc(C(=O)NS(C)(=O)=O)cn23)C1(C)C` [Example 52, N-Methanesulfonyl-4,4,5,5-tetramethyl-7-thia-1,9-diazatricyclo[6.3.0.0^2,6]undeca-2(6),8,10-triene-10-carboxamide], the 50% inhibitory concentration (IC50) turned out to be 440 nM.
The result for `C[C@@]1(C(=O)O)CN2C(=N1)Sc1c2ccc(F)c1Cl` (single isomer, unassigned) [Example 279b] reads 390 nM; that for `O=C(O)c1cn2c(n1)sc1c(Cl)c(OC(F)(F)F)ccc12` [Example 214, 9-Chloro-10-(trifluoromethoxy)-7-thia-2,5-diazatricyclo[6.4.0.0^2,6]dodeca-1(8),3,5,9,11-pentaene-4-carboxylic acid], 640 nM; that for `CC(C)(C)Nc1c(C(=O)O)nc2sc3cc(OC(F)(F)F)ccc3n12` [Example 18, 3-(tert-Butylamino)-10-(trifluoromethoxy)-7-thia-2,5-diazatricyclo[6.4.0.0^2,6]dodeca-1(8),3,5,9,11-pentaene-4-carboxylic acid], 1030 nM.
The figure for `CN1CC(c2c(C(=O)O)nc3sc4c(Cl)c(F)ccc4n23)C1` [Example 290, 9-Chloro-10-fluoro-3-(1-methylazetidin-3-yl)-7-thia-2,5-diazatricyclo[6.4.0.0^2,6]dodeca-1(8),3,5,9,11-pentaene-4-carboxylic acid] is 940 nM.
The figure for `O=C(O)c1cn2c(n1)sc1cccc(Cl)c12` [Example 7, 12-Chloro-7-thia-2,5-diazatricyclo[6.4.0.0^2,6]dodeca-1(8),3,5,9,11-pentaene-4-carboxylic acid] is 2160 nM; for `CC1(C)Cc2c(sc3nc(C(=O)O)c(C4CC4)n23)C(C)(C)C1` [Example 258, 3-Cyclopropyl-9,9,11,11-tetramethyl-7-thia-2,5-diazatricyclo[6.4.0.0^2,6]dodeca-1(8),3,5-triene-4-carboxylic acid] it is 510 nM.
As for `O=C(O)c1cn2c(n1)sc1cc(Cl)c(OC(F)(F)F)cc12` [Example 230, 10-Chloro-11-(trifluoromethoxy)-7-thia-2,5-diazatricyclo[6.4.0.0^2,6]dodeca-1(8),3,5,9,11-pentaene-4-carboxylic acid], the IC50 is 980 nM.
The result for `CS(=O)(=O)Nc1c(C(=O)O)nc2sc3c(Cl)c(F)ccc3n12` [Example 232, 9-Chloro-10-fluoro-3-methanesulfonamido-7-thia-2,5-diazatricyclo[6.4.0.0^2,6]dodeca-1(8),3,5,9,11-pentaene-4-carboxylic acid] reads 200 nM; that for `CC1(C)CCc2sc3nc(C(=O)O)cn3c2C1` [Example 38, 11,11-Dimethyl-7-thia-2,5-diazatricyclo[6.4.0.0^2,6]dodeca-1(8),3,5-triene-4-carboxylic acid], 830 nM.
In the case of `CS(=O)(=O)NC(=O)c1cn2c(n1)sc1c(Cl)c(OC(F)(F)F)ccc12` [Example 220, 9-Chloro-N-methanesulfonyl-10-(trifluoromethoxy)-7-thia-2,5-diazatricyclo[6.4.0.0^2,6]dodeca-1(8),3,5,9,11-pentaene-4-carboxamide], the IC50 is 770 nM.
With `O=C(O)c1cn2c(n1)sc1c(Br)cccc12` [Example 212, 9-Bromo-7-thia-2,5-diazatricyclo[6.4.0.0^2,6]dodeca-1(8),3,5,9,11-pentaene-4-carboxylic acid], the concentration for half-maximal inhibition (IC50) was found to be 700 nM.
The figure for `O=C(O)C1CN2C(=N1)Sc1c2ccc(F)c1Cl` (centres unmarked) [Example 228, 9-Chloro-10-fluoro-7-thia-2,5-diazatricyclo[6.4.0.0^2,6]dodeca-1(8),5,9,11-tetraene-4-carboxylic acid] is 260 nM; for `O=C(O)C1(CO)CN2C(=N1)Sc1c2ccc(F)c1Cl` (centres unmarked) [Example 263, 9-Chloro-10-fluoro-4-(hydroxymethyl)-7-thia-2,5-diazatricyclo[6.4.0.0^2,6]dodeca-1(8),5,9,11-tetraene-4-carboxylic acid] it is 1060 nM; for `O=C(O)c1nc2sc3c(Cl)c(F)ccc3n2c1C1CC1` [Example 291, 9-Chloro-3-cyclopropyl-10-fluoro-7-thia-2,5-diazatricyclo[6.4.0.0^2,6]dodeca-1(8),3,5,9,11-pentaene-4-carboxylic acid] it is 100 nM.
The figure for `O=C(O)c1cn2c(n1)sc1c(Cl)c(C3CC3)ccc12` [Example 252, 9-Chloro-10-cyclopropyl-7-thia-2,5-diazatricyclo[6.4.0.0^2,6]dodeca-1(8),3,5,9,11-pentaene-4-carboxylic acid] is 290 nM.
Turning to `O=C(O)c1cn2c3c(sc2n1)CC(c1ccccc1)CC3` (centres unmarked) [Example 34, 10-Phenyl-7-thia-2,5-diazatricyclo[6.4.0.0^2,6]dodeca-1(8),3,5-triene-4-carboxylic acid], the IC50 was 1500 nM.
The result for `O=C(O)c1cn2c(n1)sc1c(Cl)c(Cl)ccc12` [Example 1, 9,10-Dichloro-7-thia-2,5-diazatricyclo[6.4.0.0^2,6]dodeca-1(8),3,5,9,11-pentaene-4-carboxylic acid] reads 130 nM; that for `CCN(CC)CCCS(=O)(=O)NC(=O)c1cn2c3c(sc2n1)C(C)(C)CC(C)(C)C3` [Example 54, N-[3-(Diethylamino)propanesulfonyl]-9,9,11,11-tetramethyl-7-thia-2,5-diazatricyclo[6.4.0.0^2,6]dodeca-1(8),3,5-triene-4-carboxamide], 1360 nM.
The result for `CC(C)(C)C1CCc2c(sc3nc(CC(=O)O)cn23)C1` (centres unmarked) [Example 45, 2-{10-tert-Butyl-7-thia-2,5-diazatricyclo[6.4.0.0^2,6]dodeca-1(8),3,5-trien-4-yl}acetic acid] reads 3100 nM; that for `COc1ccc(-c2c(C(=O)O)nc3sc4c(n23)CCC(C(C)(C)C)C4)cc1` (centres unmarked) [Example 190, 10-tert-Butyl-3-(4-methoxyphenyl)-7-thia-2,5-diazatricyclo[6.4.0.0^2,6]dodeca-1(8),3,5-triene-4-carboxylic acid], 1680 nM.
The result for `COc1ccc2c(sc3nc(C(=O)O)cn32)c1Cl` [Example 218, 9-Chloro-10-methoxy-7-thia-2,5-diazatricyclo[6.4.0.0^2,6]dodeca-1(8),3,5,9,11-pentaene-4-carboxylic acid] reads 1580 nM; that for `C#Cc1c(C(=O)O)nc2sc3c(n12)CC(C)(C)CC3(C)C` [Example 229, 3-Ethynyl-9,9,11,11-tetramethyl-7-thia-2,5-diazatricyclo[6.4.0.0^2,6]dodeca-1(8),3,5-triene-4-carboxylic acid], 740 nM.
As to `CC1CCCc2c1sc1nc(C(=O)O)cn21` (centres unmarked) [Example 44, 9-Methyl-7-thia-2,5-diazatricyclo[6.4.0.0^2,6]dodeca-1(8),3,5-triene-4-carboxylic acid], the IC50 worked out at 840 nM.
The figure for `CSc1c(C(=O)O)nc2sc3c(n12)CC(C)(C)CC3(C)C` [Example 292, 9,9,11,11-Tetramethyl-3-(methylsulfanyl)-7-thia-2,5-diazatricyclo[6.4.0.0^2,6]dodeca-1(8),3,5-triene-4-carboxylic acid] is 290 nM.
